From patent US7056511B2, “Inhibition of protein binding to mast cells” (Fornix Biosciences N.V., priority 1998, dated 2006) come the findings set out here.

The subject of one assay is RBL-2H3 cells. Kind of assay: Binding of FITC-labeled Ig LC to RBL-2H3 mast cell model (FACScan flow cytometer). The format is cell-based, rat. On the procedure: Basophilic leukemia cells RBL-2H3 (a gift of C. Fewtrell, Ithaca, N.Y., U.S.A.) of the rat, an established model for mast cells, were incubated with 200 ng/10^5 cells Ig LC labeled with fluorescein isothiocyanate. They were incubated for 30 minutes at 4° C. in the presence or absence of 250 μg/ml of the peptide LCBP prepared in preparation 1 (peptide binding to the light chain). Subsequently, they were washed using a phosphate-buffered saline supplemented with 1% v/v fetal calf serum and 0.01% w/v sodium azide. Binding of FITC-labeled Ig LC to RBL-2H3 cells was analyzed using a FACScan flow cytometer.
Curve 4 represents the autofluorescence of unlabeled RBL-2H3 cells.

A further assay has as its system mice. Kind of assay: Bronchoconstriction (Penh, plethysmography) in mice passively sensitized with TNP-specific Ig LC and challenged intranasally with PSA. The format is in vivo. On the procedure:
Lightly anaesthetized with halothane, mice were passively sensitized by injection with trinitrophenyl (TNP)-specific Ig LC (2 μg in 50 μl of sterile saline) in the retroorbital plexus. Control mice received only 50 μl of sterile saline. Thirty minutes after injection, while being lightly anaesthetized with halothane, all mice received intranasally 50 μl PSA-solution (picrylsulphonic acid dissolved in phosphate-buffered saline).
A part of each of these two groups of mice simultaneously received 200 μg LCBP (the peptide prepared in Example 1) intranasally.
Bronchoconstriction was measured as described by Kraneveld A. D. et al. (ref. 3) and Zuany-Amorim et al. (ref. 6). In short, five minutes before intranasal application of PSA, mice were placed in a plethysmographic chamber (Buxco Electronics Inc., Shanon, Conn.) in order to analyze respiration and to obtain basal line readings. After the intranasal administration, the animals were directly returned to the chamber. The respiratory resistance was measured for a period of 45 minutes. The respiratory resistance is expressed as a dimensionless value calculated by using the formula for the Penh (ref. 4).

Take “Ac-AHWSGHCCL-NH2 (cysteine pairing not given here) [LCBP]”: the “Inhibition of Ig LC binding to mast cells” value with RBL-2H3 cells (LCBP 0.25 mg/ml, FIG. 1 curve 2) is listed as “can be inhibited”; with RBL-2H3 cells (LCBP 0.50 mg/ml, FIG. 1 curve 3), “can be inhibited”. The “Penh (maximum, respiratory resistance)” value was determined as 0.44 ± 0.05 in the assay on mice (LCBP/PBS/PSA group (200 μg LCBP intranasally, saline instead of Ig LC), time 0 min, basal line reading before the challenge); 0.60 ± 0.12 in the assay on mice (LCBP/PBS/PSA group (200 μg LCBP intranasally, saline instead of Ig LC), time 2.5 min); 0.65 ± 0.23 in the assay with mice (LCBP/PBS/PSA group (200 μg LCBP intranasally, saline instead of Ig LC), time 5 min); 0.74 ± 0.12 in the assay on mice (LCBP/PBS/PSA group (200 μg LCBP intranasally, saline instead of Ig LC), time 7.5 min); 0.53 ± 0.03 in the assay on mice (LCBP/PBS/PSA group (200 μg LCBP intranasally, saline instead of Ig LC), time 10 min); 0.49 ± 0.06 in the assay on mice (LCBP/PBS/PSA group (200 μg LCBP intranasally, saline instead of Ig LC), time 15 min). The “Penh (maximum, respiratory resistance)” value with mice (LCBP/PBS/PSA group (200 μg LCBP intranasally, saline instead of Ig LC), time 20 min) is given as 0.49 ± 0.03; in the assay on mice (LcBP/Ig LC/PSA group (200 μg LCBP intranasally, Ig LC-sensitized mice), time 0 min, basal line reading before the challenge), 0.43 ± 0.05; in the assay on mice (LcBP/Ig LC/PSA group (200 μg LCBP intranasally, Ig LC-sensitized mice), time 2.5 min) it was 0.87 ± 0.20; in the assay with mice (LcBP/Ig LC/PSA group (200 μg LCBP intranasally, Ig LC-sensitized mice), time 5 min), 1.12 ± 0.20; in the assay with mice (LcBP/Ig LC/PSA group (200 μg LCBP intranasally, Ig LC-sensitized mice), time 7.5 min) it was 0.87 ± 0.10; in the assay on mice (LcBP/Ig LC/PSA group (200 μg LCBP intranasally, Ig LC-sensitized mice), time 10 min), 0.87 ± 0.20. In addition, the “Penh (maximum, respiratory resistance)” value is 0.85 ± 0.01 with mice (LcBP/Ig LC/PSA group (200 μg LCBP intranasally, Ig LC-sensitized mice), time 15 min) and 0.52 ± 0.05 in the assay with mice (LcBP/Ig LC/PSA group (200 μg LCBP intranasally, Ig LC-sensitized mice), time 20 min). Besides, the “Inhibition of bronchoconstriction (elevation of Penh) induced by antigen (PSA)” value in the assay with mice (intranasal LCBP during passive sensitization (i.v.) with Ig LC) is “completely inhibit”.
